# In ChEMBL document CHEMBL4831500, “Discovery of first-in-class imidazothiazole-based potent and selective ErbB4 (HER4) kinase inhibitors” (Eur J Med Chem, 2021):
# How the values were obtained:
# [1] = tested on: Panel NCI-60 (60 carcinoma cell lines); assay: Growth inhibition of human panel NCI-60 (60 carcinoma cells) assessed as growth percent at 10 uM measured after 48 hrs by SRB assay relative to control; assay type: functional; details: read-out: Activity
# NCI-H522 = assay: Antiproliferative activity against human NCI-H522 cells assessed as cell growth inhibition measured after 48 hrs by SRB assay; assay type: functional, cell-based; details: NCI-H522, 48 h
# SK-MEL-5 [2] = assay: Antiproliferative activity against human SK-MEL-5 cells assessed as cell growth inhibition measured after 48 hrs by SRB assay; assay type: functional, cell-based; details: SK-MEL-5, 48 h
# HL-60(TB) [3] = assay: Antiproliferative activity against human HL-60(TB) cells assessed as cell growth inhibition measured after 48 hrs by SRB assay; assay type: functional, cell-based; details: HL-60, 48 h
# MOLT-4 = assay: Antiproliferative activity against human MOLT-4 cells assessed as cell growth inhibition measured after 48 hrs by SRB assay; assay type: functional, cell-based; details: MOLT-4, 48 h
# NCI-H322M = assay: Antiproliferative activity against human NCI-H322M cells assessed as cell growth inhibition measured after 48 hrs by SRB assay; assay type: functional, cell-based
# OVCAR-4 [4] = assay: Antiproliferative activity against human OVCAR-4 cells assessed as cell growth inhibition measured after 48 hrs by SRB assay; assay type: functional, cell-based; details: OVCAR-4, 48 h
# U-251 = assay: Antiproliferative activity against human U-251 cells assessed as cell growth inhibition measured after 48 hrs by SRB assay; assay type: functional, cell-based; details: U-251, 48 h
# MDA-MB-468 [5] = assay: Antiproliferative activity against human MDA-MB-468 cells assessed as cell growth inhibition measured after 48 hrs by SRB assay; assay type: functional, cell-based; details: MDA-MB-468, 48 h
# HCC 2998 = assay: Antiproliferative activity against human HCC 2998 cells assessed as cell growth inhibition measured after 48 hrs by SRB assay; assay type: functional, cell-based; details: HCC 2998, 48 h
# UO-31 [6] = assay: Antiproliferative activity against human UO-31 cells assessed as cell growth inhibition measured after 48 hrs by SRB assay; assay type: functional, cell-based; details: UO-31, 48 h
# DU-145 [7] = assay: Antiproliferative activity against human DU-145 cells assessed as cell growth inhibition measured after 48 hrs by SRB assay; assay type: functional, cell-based; details: DU-145, 48 h
# SNB-75 [8] = assay: Antiproliferative activity against human SNB-75 cells assessed as cell growth inhibition measured after 48 hrs by SRB assay; assay type: functional, cell-based; details: SNB-75, 48 h
# [9] = molecular target: RAF proto-oncogene serine/threonine-protein kinase (Homo sapiens, UniProt P04049); assay: Inhibition of RAF1 (unknown origin) at 10 uM incubated for 40 mins in presence of Mg/ATP mix by [gamma p33]-ATP based scintillation counting method relative to control
# RAF proto-oncogene serine/threonine-protein kinase, sequence (P04049 whole entry): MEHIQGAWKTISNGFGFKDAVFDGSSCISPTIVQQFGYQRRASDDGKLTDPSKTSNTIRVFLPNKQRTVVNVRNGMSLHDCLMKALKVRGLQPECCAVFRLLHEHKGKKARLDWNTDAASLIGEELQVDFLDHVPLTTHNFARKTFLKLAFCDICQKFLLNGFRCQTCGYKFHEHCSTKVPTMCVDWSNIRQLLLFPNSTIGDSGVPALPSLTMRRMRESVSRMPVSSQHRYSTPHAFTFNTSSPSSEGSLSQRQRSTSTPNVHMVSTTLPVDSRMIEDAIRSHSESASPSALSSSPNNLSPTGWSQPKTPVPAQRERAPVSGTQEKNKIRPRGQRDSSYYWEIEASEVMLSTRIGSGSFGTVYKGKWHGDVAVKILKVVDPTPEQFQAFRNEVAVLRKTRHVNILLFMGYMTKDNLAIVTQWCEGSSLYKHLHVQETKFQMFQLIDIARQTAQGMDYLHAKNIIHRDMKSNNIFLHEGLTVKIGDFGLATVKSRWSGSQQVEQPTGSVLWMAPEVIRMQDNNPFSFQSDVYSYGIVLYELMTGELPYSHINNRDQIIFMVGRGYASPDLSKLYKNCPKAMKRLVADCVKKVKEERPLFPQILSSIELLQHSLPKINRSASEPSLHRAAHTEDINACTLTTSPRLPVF
# WI-38 = assay: Cytotoxicity against human WI-38 cells assessed as cell growth inhibition measured after 48 hrs by SRB assay; assay type: cell-based; details: WI-38, 48 h
# UO-31 [10] = assay: Antiproliferative activity against human UO-31 cells assessed as cell growth inhibition at 10 uM measured after 48 hrs by SRB assay relative to control; assay type: functional
# [11] = molecular target: Epidermal growth factor receptor (Homo sapiens, UniProt P00533); assay: Inhibition of EGFR (unknown origin) at 10 uM incubated for 40 mins in presence of Mg/ATP mix by [gamma p33]-ATP based scintillation counting method relative to control
# [12] = Cytotoxicity against human WI-38 cells assessed as cell growth inhibition at 10 uM measured after 48 hrs by SRB assay relative to control; assay type: cell-based
# MDA-MB-468 [13] = assay: Antiproliferative activity against human MDA-MB-468 cells assessed as cell growth inhibition at 10 uM measured after 48 hrs by SRB assay relative to control; assay type: functional
# [14] = molecular target: Receptor tyrosine-protein kinase erbB-2 (Homo sapiens) (UniProt P04626); assay: Inhibition of ErbB2 (unknown origin) at 10 uM incubated for 40 mins in presence of Mg/ATP mix by [gamma p33]-ATP based scintillation counting method relative to control
# [15] = tested on: Serine/threonine-protein kinase B-raf (Homo sapiens), P15056 [V600E]; assay: Inhibition of BRAF V600E mutant (unknown origin) at 10 uM incubated for 40 mins in presence of Mg/ATP mix by [gamma p33]-ATP based scintillation counting method relative to control
# Serine/threonine-protein kinase B-raf (Homo sapiens), P15056 [V600E], sequence (P15056 whole entry V600E): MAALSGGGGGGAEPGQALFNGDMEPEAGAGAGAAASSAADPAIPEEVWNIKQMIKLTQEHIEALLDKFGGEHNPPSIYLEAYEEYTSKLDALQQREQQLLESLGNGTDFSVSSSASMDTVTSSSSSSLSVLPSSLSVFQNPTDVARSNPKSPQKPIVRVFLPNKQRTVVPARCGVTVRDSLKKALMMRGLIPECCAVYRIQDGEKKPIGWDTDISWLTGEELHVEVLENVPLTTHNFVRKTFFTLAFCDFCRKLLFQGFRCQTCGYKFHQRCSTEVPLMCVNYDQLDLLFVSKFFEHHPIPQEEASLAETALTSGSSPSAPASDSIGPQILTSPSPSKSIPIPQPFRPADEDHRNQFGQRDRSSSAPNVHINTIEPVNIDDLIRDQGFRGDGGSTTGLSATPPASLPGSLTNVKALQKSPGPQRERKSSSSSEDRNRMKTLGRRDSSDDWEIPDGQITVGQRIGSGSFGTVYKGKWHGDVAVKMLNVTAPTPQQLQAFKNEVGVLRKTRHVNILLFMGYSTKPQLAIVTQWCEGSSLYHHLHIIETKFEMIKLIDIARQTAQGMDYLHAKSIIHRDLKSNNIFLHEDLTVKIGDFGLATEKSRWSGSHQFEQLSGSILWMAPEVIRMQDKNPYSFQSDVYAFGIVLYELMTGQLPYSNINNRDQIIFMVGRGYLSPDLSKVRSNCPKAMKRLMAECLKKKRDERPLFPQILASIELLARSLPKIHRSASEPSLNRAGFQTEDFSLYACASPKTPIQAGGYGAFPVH
# DU-145 [16] = assay: Antiproliferative activity against human DU-145 cells assessed as cell growth inhibition at 10 uM measured after 48 hrs by SRB assay relative to control; assay type: functional
# [17] = molecular target: Serine/threonine-protein kinase B-raf (Homo sapiens, UniProt P15056); assay: Inhibition of wild type B-RAF (unknown origin) at 10 uM incubated for 40 mins in presence of Mg/ATP mix by [gamma p33]-ATP based scintillation counting method relative to control
# Serine/threonine-protein kinase B-raf, sequence (P15056 whole entry): as the sequence (P15056 whole entry V600E) above, with E600V counted along it
# SK-MEL-5 [18] = assay: Antiproliferative activity against human SK-MEL-5 cells assessed as cell growth inhibition at 10 uM measured after 48 hrs by SRB assay relative to control; assay type: functional
# OVCAR-4 [19] = assay: Antiproliferative activity against human OVCAR-4 cells assessed as cell growth inhibition at 10 uM measured after 48 hrs by SRB assay relative to control; assay type: functional
# SNB-75 [20] = assay: Antiproliferative activity against human SNB-75 cells assessed as cell growth inhibition at 10 uM measured after 48 hrs by SRB assay relative to control; assay type: functional
# [21] = molecular target: Vascular endothelial growth factor receptor 2 (Homo sapiens, UniProt P35968); assay: Inhibition of KDR (unknown origin) at 10 uM incubated for 40 mins in presence of Mg/ATP mix by [gamma p33]-ATP based scintillation counting method relative to control
# Vascular endothelial growth factor receptor 2, sequence (P35968 whole entry): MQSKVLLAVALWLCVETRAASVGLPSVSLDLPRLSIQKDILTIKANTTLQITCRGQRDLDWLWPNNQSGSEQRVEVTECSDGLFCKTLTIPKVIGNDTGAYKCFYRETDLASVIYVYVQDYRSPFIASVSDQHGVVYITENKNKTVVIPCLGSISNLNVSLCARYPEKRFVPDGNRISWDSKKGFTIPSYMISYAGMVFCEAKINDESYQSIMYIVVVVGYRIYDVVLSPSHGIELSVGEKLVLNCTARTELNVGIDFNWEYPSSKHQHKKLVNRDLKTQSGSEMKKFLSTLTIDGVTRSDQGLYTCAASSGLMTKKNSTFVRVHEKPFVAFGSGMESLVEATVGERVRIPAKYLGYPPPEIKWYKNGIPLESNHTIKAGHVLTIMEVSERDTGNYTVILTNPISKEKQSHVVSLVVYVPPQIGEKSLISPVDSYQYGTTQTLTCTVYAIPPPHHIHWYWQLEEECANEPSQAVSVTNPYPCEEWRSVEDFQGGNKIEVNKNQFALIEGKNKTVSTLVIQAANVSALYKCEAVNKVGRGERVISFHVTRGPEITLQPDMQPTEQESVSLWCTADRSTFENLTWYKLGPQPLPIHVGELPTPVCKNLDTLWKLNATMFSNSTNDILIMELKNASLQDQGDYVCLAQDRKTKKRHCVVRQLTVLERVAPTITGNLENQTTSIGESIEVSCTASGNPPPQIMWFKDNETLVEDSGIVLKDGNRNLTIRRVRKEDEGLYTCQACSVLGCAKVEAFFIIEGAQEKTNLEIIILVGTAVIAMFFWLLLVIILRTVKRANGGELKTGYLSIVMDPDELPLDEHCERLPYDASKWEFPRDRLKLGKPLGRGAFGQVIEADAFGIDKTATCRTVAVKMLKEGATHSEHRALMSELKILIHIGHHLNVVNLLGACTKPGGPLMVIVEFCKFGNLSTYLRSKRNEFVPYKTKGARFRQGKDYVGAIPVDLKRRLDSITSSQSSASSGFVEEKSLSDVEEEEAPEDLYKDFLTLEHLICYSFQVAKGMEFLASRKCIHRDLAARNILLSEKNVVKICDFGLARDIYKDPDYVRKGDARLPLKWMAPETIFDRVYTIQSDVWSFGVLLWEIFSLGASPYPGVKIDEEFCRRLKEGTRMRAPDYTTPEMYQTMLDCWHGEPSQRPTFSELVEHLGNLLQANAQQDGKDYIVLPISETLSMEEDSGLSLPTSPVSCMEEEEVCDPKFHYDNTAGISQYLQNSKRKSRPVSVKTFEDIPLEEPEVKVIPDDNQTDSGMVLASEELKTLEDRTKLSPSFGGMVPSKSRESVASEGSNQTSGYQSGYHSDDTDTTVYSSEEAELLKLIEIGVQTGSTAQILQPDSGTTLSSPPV
# [22] = molecular target: Proto-oncogene tyrosine-protein kinase Src (Homo sapiens) (UniProt P12931); assay: Inhibition of C-SRC (unknown origin) at 10 uM incubated for 40 mins in presence of Mg/ATP mix by [gamma p33]-ATP based scintillation counting method relative to control
# Proto-oncogene tyrosine-protein kinase Src (Homo sapiens), sequence (P12931 2-536 limits assumed): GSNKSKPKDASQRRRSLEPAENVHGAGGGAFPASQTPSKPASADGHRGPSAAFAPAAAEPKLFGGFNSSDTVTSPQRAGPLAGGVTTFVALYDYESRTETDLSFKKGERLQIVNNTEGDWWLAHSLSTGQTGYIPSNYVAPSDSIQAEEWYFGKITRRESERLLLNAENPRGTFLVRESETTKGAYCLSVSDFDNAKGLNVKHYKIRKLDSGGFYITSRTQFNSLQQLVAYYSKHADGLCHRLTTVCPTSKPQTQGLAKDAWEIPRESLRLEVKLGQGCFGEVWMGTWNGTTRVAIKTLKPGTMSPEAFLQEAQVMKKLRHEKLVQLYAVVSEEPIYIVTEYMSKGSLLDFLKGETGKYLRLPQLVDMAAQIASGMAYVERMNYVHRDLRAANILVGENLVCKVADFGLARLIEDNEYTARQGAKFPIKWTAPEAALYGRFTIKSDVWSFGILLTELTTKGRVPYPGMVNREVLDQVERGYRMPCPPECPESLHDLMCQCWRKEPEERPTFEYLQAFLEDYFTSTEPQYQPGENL
# [23] = molecular target: Receptor tyrosine-protein kinase erbB-4 (Homo sapiens, UniProt Q15303); assay: Inhibition of ErbB4 (unknown origin) at 10 uM incubated for 40 mins in presence of Mg/ATP mix by [gamma p33]-ATP based scintillation counting method relative to control
# HL-60(TB) [24] = assay: Antiproliferative activity against human HL-60(TB) cells assessed as cell growth inhibition at 10 uM measured after 48 hrs by SRB assay relative to control; assay type: functional
# [25] = molecular target: Fibroblast growth factor receptor 1 (Homo sapiens) (UniProt P11362); assay: Inhibition of FGFR1 (unknown origin) at 10 uM incubated for 40 mins in presence of Mg/ATP mix by [gamma p33]-ATP based scintillation counting method relative to control
# Fibroblast growth factor receptor 1 (Homo sapiens), sequence (P11362 22-822 limits assumed): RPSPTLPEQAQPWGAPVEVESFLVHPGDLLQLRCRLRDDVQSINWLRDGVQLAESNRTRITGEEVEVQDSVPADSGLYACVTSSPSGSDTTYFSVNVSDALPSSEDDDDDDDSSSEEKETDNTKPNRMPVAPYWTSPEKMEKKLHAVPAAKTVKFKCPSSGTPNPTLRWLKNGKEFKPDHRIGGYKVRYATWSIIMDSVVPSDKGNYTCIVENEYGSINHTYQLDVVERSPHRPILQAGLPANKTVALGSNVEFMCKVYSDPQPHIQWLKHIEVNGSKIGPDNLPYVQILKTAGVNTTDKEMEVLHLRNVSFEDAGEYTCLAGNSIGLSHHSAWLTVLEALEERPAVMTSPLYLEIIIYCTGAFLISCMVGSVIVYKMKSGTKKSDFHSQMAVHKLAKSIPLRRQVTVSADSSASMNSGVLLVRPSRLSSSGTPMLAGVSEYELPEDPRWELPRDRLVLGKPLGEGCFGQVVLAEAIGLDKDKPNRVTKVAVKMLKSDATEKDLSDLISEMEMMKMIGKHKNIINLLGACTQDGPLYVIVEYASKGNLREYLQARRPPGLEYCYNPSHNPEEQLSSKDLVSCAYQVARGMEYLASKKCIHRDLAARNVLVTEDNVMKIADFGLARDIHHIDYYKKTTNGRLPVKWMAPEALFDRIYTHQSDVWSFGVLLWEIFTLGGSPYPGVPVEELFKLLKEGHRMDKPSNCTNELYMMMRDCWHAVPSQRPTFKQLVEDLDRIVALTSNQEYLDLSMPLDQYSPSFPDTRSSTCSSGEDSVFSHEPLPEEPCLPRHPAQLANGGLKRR
smiles,measurement,setting,value
CS(=O)(=O)c1nccc(-c2c(-c3cccc(OS(N)(=O)=O)c3)nc3sccn23)n1,growth at 10 µM,[1],97.9%
COc1cccc(-c2nc3sccn3c2-c2cccc(S(C)(=O)=O)c2)c1,growth at 10 µM,[1],99.8%
Fc1ccc(CCOc2cccc(-c3nc4sccn4c3-c3ccccc3)c2)cc1,growth at 10 µM,[1],87.5%
CNC(=O)c1cc(Oc2ccc(NC(=O)Nc3ccc(Cl)c(C(F)(F)F)c3)cc2)ccn1 [SORAFENIB],IC50,NCI-H522,5.01 µM
same,IC50,SK-MEL-5 [2],2.51 µM
Oc1cccc(-c2nc3sccn3c2-c2ccncn2)c1,growth at 10 µM,[1],85.5%
CS(=O)(=O)c1nccc(-c2c(-c3cccc(O)c3)nc3sccn23)n1,growth at 10 µM,[1],90%
CC(C)N(CCOc1cccc(-c2nc3sccn3c2-c2ccnc(S(C)(=O)=O)n2)c1)C(C)C,growth at 10 µM,[1],81.8%
COc1ccc(-c2nc3sccn3c2-c2ccnc(S(C)(=O)=O)n2)cc1,growth at 10 µM,[1],73%
c1ccc(CCOc2cccc(-c3nc4sccn4c3-c3ccccc3)c2)cc1,growth at 10 µM,[1],98.9%
C=CC(=O)N1CCC[C@@H](n2nc(-c3ccc(Oc4ccccc4)cc3)c3c(N)ncnc32)C1 [IBRUTINIB],IC50,NCI-H522,0.06 µM
same,IC50,HL-60(TB) [3],19.9 µM
same,IC50,MOLT-4,3.98 µM
same,IC50,SK-MEL-5 [2],6.31 µM
same,IC50,NCI-H322M,0.1 µM
same,IC50,OVCAR-4 [4],7.94 µM
same,IC50,U-251,6.31 µM
same,IC50,MDA-MB-468 [5],0.03 µM
same,IC50,HCC 2998,15.8 µM
same,IC50,UO-31 [6],1.26 µM
same,IC50,DU-145 [7],2 µM
same,IC50,SNB-75 [8],3.16 µM
CS(=O)(=O)c1cccc(-c2c(-c3cccc(OCCc4ccc(F)cc4)c3)nc3sccn23)c1,growth at 10 µM,[1],82.9%
Fc1ccc(COc2cccc(-c3nc4sccn4c3-c3ccccc3)c2)cc1,growth at 10 µM,[1],97.8%
CS(=O)(=O)c1nccc(-c2c(-c3ccc(OCc4ccccc4)cc3)nc3sccn23)n1,growth at 10 µM,[1],95.1%
COc1cccc(-c2nc3occn3c2-c2ccnc(S(C)(=O)=O)n2)c1,growth at 10 µM,[1],96%
Fc1ccc(COc2cccc(-c3nc4sccn4c3-c3ccncn3)c2)cc1,growth at 10 µM,[1],76.3%
O=C(COc1cccc(-c2nc3sccn3c2-c2ccccc2)c1)c1ccccc1,growth at 10 µM,[1],84.6%
CS(=O)(=O)c1nccc(-c2c(-c3cccc(OCc4ccccc4)c3)nc3occn23)n1,growth at 10 µM,[1],101%
CS(=O)(=O)c1nccc(-c2c(-c3cccc(OCC(=O)c4ccccc4)c3)nc3sccn23)n1,growth at 10 µM,[1],94%
CS(=O)(=O)c1nccc(-c2c(-c3cccc(OCCN4CCOCC4)c3)nc3sccn23)n1,growth at 10 µM,[1],83.5%
CS(=O)(=O)c1nccc(-c2c(-c3cccc(OCCN4CCCC4)c3)nc3sccn23)n1,growth at 10 µM,[1],94.2%
CC(C)N(CCOc1ccc(-c2nc3sccn3c2-c2ccnc(S(C)(=O)=O)n2)cc1)C(C)C,growth at 10 µM,[1],81.1%
CS(=O)(=O)c1nccc(-c2c(-c3ccc(OCCN4CCOCC4)cc3)nc3sccn23)n1,growth at 10 µM,[1],101%
CS(=O)(=O)c1nccc(-c2c(-c3ccc(O)cc3)nc3sccn23)n1,growth at 10 µM,[1],99.7%
CS(=O)(=O)c1nccc(-c2c(-c3cccc(O)c3)nc3occn23)n1,growth at 10 µM,[1],102%
CS(=O)(=O)c1nccc(-c2c(-c3ccc(OCCc4ccccc4)cc3)nc3sccn23)n1,growth at 10 µM,[1],91.2%
CS(=O)(=O)c1nccc(-c2c(-c3cccc(OCc4ccc(F)cc4)c3)nc3occn23)n1,growth at 10 µM,[1],89.7%
CS(=O)(=O)c1cccc(-c2c(-c3cccc(OCCc4ccccc4)c3)nc3sccn23)c1,growth at 10 µM,[1],95.3%
CS(=O)(=O)c1cccc(-c2c(-c3cccc(OCc4ccccc4)c3)nc3sccn23)c1,growth at 10 µM,[1],87.6%
CN(C)CCOc1ccc(-c2nc3sccn3c2-c2ccnc(S(C)(=O)=O)n2)cc1,growth at 10 µM,[1],102%
CS(=O)(=O)c1nccc(-c2c(-c3cccc(OCc4ccc(F)cc4)c3)nc3sccn23)n1,inhibition,[9],10.8%
same,IC50,WI-38,12.6 µM
same,inhibition at 10 µM,UO-31 [10],124%
same,inhibition,[11],-5.54%
same,IC50,HL-60(TB) [3],3.36 µM
same,"inhibition at 48 h, 10 µM",[12],21.6%
same,inhibition at 10 µM,MDA-MB-468 [13],164%
same,inhibition,[14],-2.99%
same,IC50,SK-MEL-5 [2],1.54 µM
same,inhibition,[15],33.6%
same,inhibition at 10 µM,DU-145 [16],154%
same,inhibition,[17],9.62%
same,IC50,NCI-H322M,1.82 µM
same,IC50,OVCAR-4 [4],3.98 µM
same,inhibition at 10 µM,SK-MEL-5 [18],94.6%
same,inhibition at 10 µM,OVCAR-4 [19],34.9%
same,inhibition at 10 µM,SNB-75 [20],4.08%
same,growth at 10 µM,[1],60.6%
same,IC50,MDA-MB-468 [5],1.8 µM
same,inhibition,[21],24.8%
same,inhibition,[22],2.46%
same,IC50,UO-31 [6],1.68 µM
same,inhibition,[23],60.2%
same,IC50,DU-145 [7],1.89 µM
same,inhibition at 10 µM,HL-60(TB) [24],56.3%
same,inhibition,[25],-0.04%
same,IC50,SNB-75 [8],15.6 µM
c1ccc(COc2cccc(-c3nc4sccn4c3-c3ccccc3)c2)cc1,growth at 10 µM,[1],99.3%
O=C(COc1cccc(-c2nc3sccn3c2-c2ccncn2)c1)c1ccccc1,growth at 10 µM,[1],97%
COc1cccc(-c2nc3sccn3c2-c2ccccc2)c1,growth at 10 µM,[1],96.6%
CS(=O)(=O)c1cccc(-c2c(-c3cccc(OCc4ccc(F)cc4)c3)nc3sccn23)c1,growth at 10 µM,[1],74.7%
CS(=O)(=O)c1nccc(-c2c(-c3ccc(OCCN4CCCC4)cc3)nc3sccn23)n1,growth at 10 µM,[1],101%
Fc1ccc(CCOc2cccc(-c3nc4sccn4c3-c3ccncn3)c2)cc1,growth at 10 µM,[1],96%
CS(=O)(=O)c1nccc(-c2c(-c3cccc(OCCc4ccc(F)cc4)c3)nc3sccn23)n1,growth at 10 µM,[1],91.6%
CS(=O)(=O)c1cccc(-c2c(-c3cccc(OCC(=O)c4ccccc4)c3)nc3sccn23)c1,growth at 10 µM,[1],91%
CS(=O)(=O)c1cccc(-c2c(-c3cccc(O)c3)nc3sccn23)c1,growth at 10 µM,[1],99.2%
c1ccc(CCOc2cccc(-c3nc4sccn4c3-c3ccncn3)c2)cc1,growth at 10 µM,[1],96.4%
Oc1cccc(-c2nc3sccn3c2-c2ccccc2)c1,growth at 10 µM,[1],94%
CN(C)CCOc1cccc(-c2nc3sccn3c2-c2ccnc(S(C)(=O)=O)n2)c1,growth at 10 µM,[1],93.7%
CS(=O)(=O)c1nccc(-c2c(-c3cccc(OCCc4ccccc4)c3)nc3sccn23)n1,growth at 10 µM,[1],96%
